Laboratory results: patent publication US11557737B2, “Compound, coating composition comprising same, organic light-emitting element using same, and manufacturing method therefor” (LG Chem, Ltd., priority 2018, dated 2023)

test: Solubility measurement (compound dissolved in solvent, left 1 day, precipitate checked by Tyndall effect); type: physicochemical; conditions: dissolved in a solvent, left to stand for 1 day, laser / Tyndall effect
Protocol: In the present specification, the “solubility” means a property in which a solute is dissolved in a specific solvent, and may be denoted as a g value of the solute that may be dissolved in 100 g of the solvent at a predetermined temperature.
The method of measuring the solubility is as follows. First, after a compound was dissolved in a solvent, the resulting solution was left to stand for 1 day. Thereafter, by passing a laser through the solution, it was observed whether a precipitate was formed through the Tyndall effect, and the solubility was measured.

Compound	Solubility [wt %]
C[Si](C)(C)c1ccc(N(c2ccccc2)c2ccc3ccc4c(N(c5ccccc5)c5ccc([Si](C)(C)C)cc5)ccc5ccc2c3c54)cc1 [Compound C]	0.1
c1ccc([Si](c2ccccc2)(c2ccccc2)c2ccc(-c3ccc(N(c4ccc(-c5cccc6c5oc5ccccc56)cc4)c4cc5ccc6cccc7ccc(c4)c5c67)cc3)cc2)cc1 [Compound E]	2
C[Si](C)(C)c1ccc(-c2ccc(N(c3ccc4ccc5c(N(c6ccc(-c7ccc([Si](C)(C)C)cc7)cc6)c6cccc7c6oc6ccccc67)ccc6ccc3c4c65)c3cccc4c3oc3ccccc34)cc2)cc1 [Compound D]	0.05
c1ccc([Si](c2ccccc2)(c2ccccc2)c2ccc(-c3ccc(N(c4ccc(-c5ccc6c(c5)oc5ccccc56)cc4)c4cc5ccc6cccc7ccc(c4)c5c67)cc3)cc2)cc1 [Compound F]	2
